Experimental data published in patent US8187821B2, “Compositions and methods for the modulation of PGRMC1” (University of Utah Research Foundation, priority 2008, dated 2012).
Several values for one entry are separate records, joined by “and”; a condition that tells them apart may be missing. Equal values may be shown once. Read-outs that look alike come from different tables or passages of the source.

Tests used:
[1] = biological target: T1, His10-PGRMC1 (Homo sapiens, UniProt O00264); test: PGRMC1 binding assay: [^3H] ligand binding to purified bacterial membranes expressing His10-PGRMC1 (+PGRMC1); settings: for Membrane-Associated [^3H] Ligand / Kd / Q1 / Q2: +PGRMC1 membranes; for Membrane-Associated [^3H] Ligand, Specific: Specific (+PGRMC1 minus −PGRMC1); for saturability of specific binding: ligand concentration spanning four orders of magnitude, FIG. 8; for His10-PGRMC1 specific binding with proteolyzed membranes: membranes trypsin-treated prior to ligand binding; for ligand bound at saturation/equilibrium in time course: 37° C; for ligand bound at saturation/equilibrium in time course / time to reach saturation/equilibrium of binding: FIG. 5, time course; for Q1: number of non-specific sites; for Q2: number of specific sites
T1 construct: a product containing the full length coding region of PGMRC1 flanked by Nde1 and BamHI restriction sites; made in house; host or cells: E. coli BL21 (DE3) / BL21 codon plus (RIPL); purified bacterial membranes
Method: For bacterial expression, BL21 (DE3) cells (Stratagene, LaJolla, Calif.) were transformed with pET-16b:PGRMC1 and plated on LB agar plates containing ampicillin (amp). One to 7 days later, individual colonies were harvested and used to inoculate small volume (5-200 mL) liquid cultures of LB-amp media. Cultures were grown with shaking at 37° C. until early log phase (OD600=0.6). IPTG was added to a final concentration of […] and the cultures were incubated for another 4 hours at 37° C. or overnight at room temperature. His10-PGRMC1 (His10 disclosed as SEQ ID NO: 14) expression was confirmed by SDS-PAGE followed by Coomassie stain and western blot using mouse monoclonal anti-tetra-His (SEQ ID NO: 15) antibody (Qiagen, Valencia, Calif.).
(§1) IPTG-induced cells were harvested by centrifugation (5,000 rpm; 5 min) and washed with ice-cold H2O. The pellet was resuspended in 5 mL buffer A (50 mM Tris-HCl pH 7.5, 150 mM NaCl, 0.1% NP40, and 10% glycerol) with 5-10 mg lysozyme, and incubated on ice for 30 min. The cells were then disrupted by three bursts of sonication (45 sec) at high intensity with a 45 sec cooling period between bursts. Soluble material was removed by centrifugation (15,000 rpm, 10 min) and the pellet resuspended in 5 mL buffer A. His10-PGRMC1 (His10 disclosed as SEQ ID NO: 14) was confirmed to be present in purified membranes by SDS-PAGE followed by Coomassie stain and western blot using anti-tetra-His (SEQ ID NO: 15) antibody (Qiagen). Total protein in the His10-PGRMC1 (His10 disclosed as SEQ ID NO: 14) transformed and untransformed purified membranes was determined by the Bradford method and membranes were normalized to 10 μg/μL total protein (diluted with buffer A). Purified membranes were then aliquoted and stored frozen until use.
(§2) The standard 10 μL binding reaction contained 10 μp purified membranes (total protein) and 10 μM [^3H] progesterone or [^3H] cholesterol (3,000-5,000 cpm) in buffer A: 20% ethanol. Stock solutions (100 μM) of [^3H] cholesterol and [^3H] progesterone containing ˜4×10^4 cpm/μL, were prepared in 95% ethanol. Reactions were prepared in clear 2.0 mL microcentrifuge tubes on ice. To start the reaction, the microfuge tube was briefly mixed (vortex) and placed at 37° C. Following a 10 to 30 min incubation, the tubes were centrifuged in a microfuge (˜13,000 rpm) for 2 min. The supernatant was carefully removed and the pellet was washed with an additional 10 μL water. After a second round of centrifugation (2 min; 13,000 rpm), the resulting supernatant was combined with the first and the pellet was resuspended in 20 μL H2O, Scintillation fluid (700 μL Wallac Optiflour) was added to each fraction and the fractions were mixed extensively. The fractions were then counted in a multi-well scintillation counter (Wallac Microbeta Triluxmax, Waltham, Mass.) for 30 seconds each. Binding are reported as μ/moles of ligand bound per mg of membrane protein. His10-PGRMC1 (His10 disclosed as SEQ ID NO: 14)-specific binding is reported as the difference in binding between transformed and untransformed bacteria. Experimental deviations from the standard assay conditions are noted in individual figure legends.
In order to better understand PGRMC1's biological function and to study ligand binding, an in vitro binding assay was developed. E. coli BL21 codon plus (RIPL) cells were transformed with a vector encoding PGRMC1 that was epitope tagged with 10 histidine (SEQ ID NO: 14) residues at the NH2-terminus. Untransformed BL21 cells were used as the control. A purification procedure was performed to remove soluble proteins and cell components from the transformed (+PGRMC1) and untransformed (−PGRMC1) bacterial membranes. The resulting purified membranes were confirmed for the presence and absence of His10-PGRMC1 (His10 disclosed as SEQ ID NO: 14) respectively by Coomassie stain and western blot using anti-His antibody. The membranes with [^3H] progesterone or [^3H] cholesterol were then incubated. […]

[2] = PGRMC1 binding assay control: non-specific [^3H] ligand association with membranes from untransformed bacteria (−PGRMC1); parameters: species or system E. coli; settings: for Q1 / Q2: two binding site model; for Q1: number of non-specific sites; for Q2: number of specific sites
Method: as §1, §2
In order to better understand PGRMC1's biological function and to study ligand binding, an in vitro binding assay was developed. E. coli BL21 codon plus (RIPL) cells were transformed with a vector encoding PGRMC1 that was epitope tagged with 10 histidine (SEQ ID NO: 14) residues at the NH2-terminus. Untransformed BL21 cells were used as the control. A purification procedure was performed to remove soluble proteins and cell components from the transformed (+PGRMC1) and untransformed (−PGRMC1) bacterial membranes. The resulting purified membranes were confirmed for the presence and absence of His10-PGRMC1 (His10 disclosed as SEQ ID NO: 14) respectively by Coomassie stain and western blot using anti-His antibody. The membranes with [^3H] progesterone or [^3H] cholesterol were then incubated. The membranes were spun out, washed, and counted in a scintillation counter. His10-PGRMC1 (His10 disclosed as SEQ ID NO: 14) specific binding was then determined by subtracting total membrane-associated ligand (nmols/mg protein) in membranes prepared from untransformed bacteria (−PGRMC1) with membranes purified from bacteria expressing His10-PGRMC1 (His10 disclosed as SEQ ID NO: 14) (+PGRMC1).
To further explore the nature of ligand binding to His10-PGRMC1 (His10 disclosed as SEQ ID NO: 14), several in silico modeling experiments fitting the saturation data to different models of ligand binding were performed. The best statistical fit of the data was to a two binding site model. […]

[3] = Protease + (trypsin before ligand binding)
[4] = two binding site model fit of saturation data, non-specific site, read-out: Kd1
[5] = two binding site model, specific site, read-out: Kd2
[6] = first category of sites, present in both +PGRMC1 and −PGRMC1 membranes, read-out: Kd of non-specific binding
[7] = two binding site model fit of saturation data, −PGRMC1 membranes, non-specific site, read-out: Kd1

T1 sequence (O00264 whole entry): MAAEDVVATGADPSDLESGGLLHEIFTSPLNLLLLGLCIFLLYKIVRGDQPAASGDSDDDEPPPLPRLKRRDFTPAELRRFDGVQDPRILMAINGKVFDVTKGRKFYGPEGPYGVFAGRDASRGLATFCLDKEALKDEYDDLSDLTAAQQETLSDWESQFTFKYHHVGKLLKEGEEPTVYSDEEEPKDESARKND

| SMILES | Membrane-Associated [^3H] Ligand [1, 3] [nmoles/mg protein] | Membrane-Associated [^3H] Ligand ([1]; Protease −) [nmoles/mg protein] | Membrane-Associated [^3H] Ligand, Specific ([1]; Protease +) [nmoles/mg protein] | Membrane-Associated [^3H] Ligand, Specific ([1]; Protease −) [nmoles/mg protein] | saturability of specific binding [1] | His10-PGRMC1 specific binding with proteolyzed membranes [1] | ligand bound at saturation/equilibrium in time course [1] | time to reach saturation/equilibrium of binding [1] | Kd [1, 4] [µM] | Q1 ([1]; two binding site model) | Kd [1, 5] | Kd [2, 6] [µM] | Kd [2, 7] [µM] | Q1 ([2]; −PGRMC1 membranes) | Q2 ([2]; −PGRMC1 membranes) [Sites] | Membrane-Associated [^3H] Ligand ([2]; −PGRMC1 membranes, Protease −) [nmoles/mg protein] | other results |
| --- | --- | --- | --- | --- | --- | --- | --- | --- | --- | --- | --- | --- | --- | --- | --- | --- | --- |
| CC(C)CCC[C@@H](C)[C@H]1CC[C@H]2[C@@H]3CC=C4C[C@@H](O)CC[C@]4(C)[C@H]3CC[C@]12C [Cholesterol, cholesterol] | 2.6 ± 0.2 | 5.2 ± 0.3 | 0.0 ± 0.2 | 1.5 ± 0.2 | did not appear to be saturable | complete loss | ~2 nmoles/mg protein | approximately the same rate as progesterone | 1000 | 9.6 × 10^9 Sites | 0.00035 µM | ~1000 | 900 | 8.4 × 10^9 Sites | 0 | 3.7 ± 0.3 | cholesterol binding relative to progesterone binding ([1]; higher at every time point of the time course): 2-3 fold; Kd of cholesterol relative to progesterone (fold lower) ([1]; specific site, two binding site model): 15 fold |
| CC(=O)[C@H]1CC[C@H]2[C@@H]3CCC4=CC(=O)CC[C@]4(C)[C@H]3CC[C@]12C [Progesterone, progesterone] | 1.6 ± 0.3 | 3.1 ± 0.3 | 0.0 ± 0.1 | 0.7 ± 0.2 | appeared to be saturable | complete loss | approximately 0.5 nmoles/mg protein | 15 to 30 min | 1000 | 8.0 × 10^9 Sites | 0.0055 µM and 0.00554 µM | ~1000 | 1700 | 8.4 × 10^9 Sites | 0 | 2.4 ± 0.1 | ligand concentration at half-maximal specific binding ([1]; saturation experiment, FIG. 8A): approximately 50 μM; Q2 ([1]; two binding site model): 19,260 Sites; Q2 ([1]; two binding site model, listed as progesterone): approximately 20,000 Sites; Membrane-Associated [^3H] Ligand ([2]; −PGRMC1 membranes, Protease + (trypsin before ligand binding)): 1.6 ± 0.2 nmoles/mg protein |
